# Test results from patent US6737383B1, “Herbicidal oxadiazolidines” (priority 1999, dated 2004).
# Assays:
# [1] = test system: dallisgrass; experiment: Test D dallisgrass; assay type: in vivo, Paspalum dilatatum; settings: Preemergence, 0 to 100 scale
# In short: (§1)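 Greenhouse pots, sandy loam, single species per pot. Preemergence tests: soil-surface application ≤1 day after planting. Compound formulated in non-phytotoxic solvent with surfactant. Visual rating 14–21 DAT, scale 0–100.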
# [2] = test system: Green foxtail; experiment: Test D green foxtail; assay type: in vivo; settings: Preemergence, 0 to 100 scale
# In short: as §1
# [3] = test system: Johnson grass; experiment: Test D Johnson grass; assay type: in vivo, Sorghum halepense; settings: Preemergence, 0 to 100 scale
# In short: as §1
# [4] = test system: goosegrass; experiment: Test D goosegrass; assay type: in vivo, Eleusine indica; settings: Preemergence, 0 to 100 scale
# In short: as §1
# [5] = test system: wild poinsettia; experiment: Test C postemergence wild poinsettia; assay type: in vivo, Euphorbia heterophylla; settings: 0 to 100 scale, 0 no effect, 100 complete control
# In short: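 Visual ratings on a 0 to 100 scale, where 0 means no effect and 100 complete control, were made versus untreated controls roughly 14 to 21 days after postemergence treatment. Test compounds were formulated in a non-phytotoxic solvent mixture containing a surfactant.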
# [6] = test system: guineagrass; experiment: Test D guineagrass; assay type: in vivo, Panicum maximum; settings: Preemergence, 0 to 100 scale
# In short: as §1
# [7] = test system: Alexandergrass; experiment: Test D Alexandergrass; assay type: in vivo, Brachiaria plantaginea; settings: Preemergence, 0 to 100 scale
# In short: as §1
# [8] = test system: bermuda-grass; experiment: Test D bermudagrass; assay type: in vivo, Cynodon dactylon; settings: Preemergence, 0 to 100 scale
# In short: as §1
# [9] = test system: tall mallow; experiment: Test D tall mallow; assay type: in vivo, Malva sylvestris; settings: Preemergence, 0 to 100 scale
# In short: as §1
# [10] = test system: pitted morningglory; experiment: Test D pitted morningglory; assay type: in vivo, Ipomoea lacunosa; settings: Preemergence, 0 to 100 scale
# In short: as §1
# [11] = test system: common groundsel; experiment: Test D common groundsel; assay type: in vivo, Senecio vulgaris; settings: Preemergence, 0 to 100 scale
# In short: as §1
# [12] = test system: common ragweed; experiment: Test D common ragweed; assay type: in vivo, Ambrosia elatior; settings: Preemergence, 0 to 100 scale
# In short: as §1
# [13] = test system: Green foxtail; experiment: Test D green foxtail; assay type: in vivo
# In short: as §1
# [14] = test system: surinam grass; experiment: Test D surinam grass; assay type: in vivo, Brachiaria decumbens; settings: Preemergence, 0 to 100 scale
# In short: as §1
# [15] = test system: itchgrass; experiment: Test D itchgrass; assay type: in vivo, Rottboellia exaltata; settings: Preemergence, 0 to 100 scale
# In short: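 Scoring used a 0–100 visual injury scale, with 0 meaning no effect and 100 complete control, assessed 14–21 days after application alongside untreated pots. Preemergence treatments went onto sandy loam surfaces of separately potted seeds within a day of sowing.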
# [16] = test system: purple nutsedge; experiment: Test D purple nutsedge; assay type: in vivo, Cyperus rotundus; settings: Preemergence, 0 to 100 scale
# In short: as §1
# [17] = Rate 16 g/ha, 0 no injury, 100 complete control
# [18] = Rate 32 g/ha, 0 no injury, 100 complete control
# [19] = Rate 64 g/ha, 0 no injury, 100 complete control
# [20] = Rate 125 g/ha, 0 no injury, 100 complete control
# [21] = Rate 64 g/ha, Preemergence; 0 to 100 scale, 0 no injury, 100 complete control
# [22] = Rate 125 g/ha, Preemergence; 0 to 100 scale, 0 no injury, 100 complete control
smiles,measurement,setting,value
C=CCn1c(=O)on(C(=O)N(c2ccccc2)C(C)C)c1=O [Compound 93],"Plant response rating, Dallisgrass",[1]; [17],60
same,"Plant response rating, Dallisgrass",[1]; [18],98
same,"Plant response rating, Dallisgrass",[1]; [19],98
same,"Plant response rating, Dallisgrass",[1]; [20],98
same,"Plant response rating, Dallisgrass",[1]; Rate 250 g/ha,100
same,"Plant response rating, Dallisgrass",[1]; Rate 500 g/ha,100
same,"Plant response rating, Green foxtail",[2]; Rate 250 g/ha,100
same,"Plant response rating, Green foxtail",[2]; Rate 500 g/ha,100
same,"Plant response rating, Johnsongrass",[3]; [17],0
same,"Plant response rating, Johnsongrass",[3]; [18],0
same,"Plant response rating, Johnsongrass",[3]; [19],40
same,"Plant response rating, Johnsongrass",[3]; [20],75
same,"Plant response rating, Johnsongrass",[3]; Rate 250 g/ha,95
same,"Plant response rating, Johnsongrass",[3]; Rate 500 g/ha,85
same,"Plant response rating, Goosegrass",[4]; [17],65
same,"Plant response rating, Goosegrass",[4]; [18],98
same,"Plant response rating, Goosegrass",[4]; [19],98
same,"Plant response rating, Goosegrass",[4]; [20],100
same,"Plant response rating, Goosegrass",[4]; Rate 250 g/ha,100
same,"Plant response rating, Goosegrass",[4]; Rate 500 g/ha,100
same,Plant response rating Wild poinsettia,[5]; Rate 140 g/ha,0
same,Plant response rating Wild poinsettia,[5]; Rate 280 g/ha,0
same,Plant response rating Wild poinsettia,[5]; Rate 560 g/ha,30
same,Plant response rating Wild poinsettia,[5]; Rate 1120 g/ha,70
same,"Plant response rating, Guineagrass",[6]; [17],65
same,"Plant response rating, Guineagrass",[6]; [18],75
same,"Plant response rating, Guineagrass",[6]; [19],100
same,"Plant response rating, Guineagrass",[6]; [20],100
same,"Plant response rating, Guineagrass",[6]; Rate 250 g/ha,100
same,"Plant response rating, Guineagrass",[6]; Rate 500 g/ha,100
same,"Plant response rating, Alexandergrass",[7]; [17],0
same,"Plant response rating, Alexandergrass",[7]; [18],10
same,"Plant response rating, Alexandergrass",[7]; [19],30
same,"Plant response rating, Alexandergrass",[7]; [20],85
same,"Plant response rating, Alexandergrass",[7]; Rate 250 g/ha,100
same,"Plant response rating, Alexandergrass",[7]; Rate 500 g/ha,100
same,"Plant response rating, Bermudagrass",[8]; [17],80
same,"Plant response rating, Bermudagrass",[8]; [18],80
same,"Plant response rating, Bermudagrass",[8]; [19],90
same,"Plant response rating, Bermudagrass",[8]; [20],100
same,"Plant response rating, Bermudagrass",[8]; Rate 250 g/ha,100
same,"Plant response rating, Bermudagrass",[8]; Rate 500 g/ha,100
same,"Plant response rating, Tall Mallow",[9]; [17],0
same,"Plant response rating, Tall Mallow",[9]; [18],0
same,Tall Mallow plant response rating,[9]; [19],0
same,Tall Mallow plant response rating,[9]; [20],30
same,"Plant response rating, Tall Mallow",[9]; Rate 250 g/ha,90
same,"Plant response rating, Tall Mallow",[9]; Rate 500 g/ha,98
same,"Plant response rating, P. morninglory",[10]; [17],0
same,"Plant response rating, P. morninglory",[10]; [18],0
same,"Plant response rating, P. morninglory",[10]; [19],0
same,"Plant response rating, P. morninglory",[10]; [20],0
same,"Plant response rating, P. morninglory",[10]; Rate 250 g/ha,0
same,"Plant response rating, P. morninglory",[10]; Rate 500 g/ha,20
same,"Plant response rating, Com. groundsel",[11]; [17],0
same,"Plant response rating, Com. groundsel",[11]; [18],0
same,"Plant response rating, Com. groundsel",[11]; [19],0
same,"Plant response rating, Com. groundsel",[11]; [20],35
same,"Plant response rating, Com. groundsel",[11]; Rate 250 g/ha,0
same,"Plant response rating, Com. groundsel",[11]; Rate 500 g/ha,100
same,"Plant response rating, C. ragweed",[12]; [17],0
same,"Plant response rating, C. ragweed",[12]; [18],0
same,"Plant response rating, C. ragweed",[12]; [19],0
same,"Plant response rating, C. ragweed",[12]; [20],10
same,"Plant response rating, C. ragweed",[12]; Rate 250 g/ha,0
same,"Plant response rating, C. ragweed",[12]; Rate 500 g/ha,80
same,"Plant response rating, Green foxtail","[13]; Preemergence; Rate 16 g/ha; 0 to 100 scale, 0 no injury, 100 complete control",65
same,"Plant response rating, Green foxtail","[13]; Preemergence; Rate 32 g/ha; 0 to 100 scale, 0 no injury, 100 complete control",75
same,"Plant response rating, Green foxtail","[13]; Rate 16 g/ha; Preemergence; 0 to 100 scale, 0 no injury, 100 complete control",65
same,"Plant response rating, Green foxtail","[13]; Rate 32 g/ha; Preemergence; 0 to 100 scale, 0 no injury, 100 complete control",0
same,Green foxtail plant response rating,[13]; [21],100
same,"Plant response rating, Green foxtail",[13]; [21],100
same,Green foxtail plant response rating,[13]; [22],100
same,"Plant response rating, Green foxtail",[13]; [22],100
same,"Plant response rating, Green foxtail",[13]; Rate 250 g/ha; Preemergence; 0 to 100 scale,100
same,"Plant response rating, Green foxtail","[13]; Rate 500 g/ha, Preemergence; 0 to 100 scale",100
same,"Plant response rating, Surinam grass",[14]; [17],0
same,"Plant response rating, Surinam grass",[14]; [18],0
same,Surinam grass plant response rating,[14]; [19],85
same,Surinam grass plant response rating,[14]; [20],90
same,"Plant response rating, Surinam grass",[14]; Rate 250 g/ha,98
same,"Plant response rating, Surinam grass",[14]; Rate 500 g/ha,100
same,"Plant response rating, Itchgrass",[15]; [17],50
same,"Plant response rating, Itchgrass",[15]; [18],60
same,"Plant response rating, Itchgrass",[15]; [19],60
same,"Plant response rating, Itchgrass",[15]; [20],75
same,"Plant response rating, Itchgrass",[15]; Rate 250 g/ha,90
same,"Plant response rating, Itchgrass",[15]; Rate 500 g/ha,100
same,"Plant response rating, Purple nutsedge",[16]; [17],0
same,"Plant response rating, Purple nutsedge",[16]; [18],0
same,Purple nutsedge plant response rating,[16]; [19],20
same,Purple nutsedge plant response rating,[16]; [20],0
same,"Plant response rating, Purple nutsedge",[16]; Rate 250 g/ha,30
same,"Plant response rating, Purple nutsedge",[16]; Rate 500 g/ha,100
